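Each compound was tested at five concentrations against cells in 96-well plates for 48 hours. GI50 marks 50% less growth. TGI: total growth inhibition.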
Key:
Experiment in all cases: NCI tumour cell line growth inhibition, 48 h
M14 melanoma = system: M14 melanoma
LOX IMVI melanoma = system: LOX IMVI melanoma
OVCAR-4 ovarian = system: OVCAR-4 ovarian
UO-31 renal = system: UO-31 renal
UACC-257 melanoma = system: UACC-257 melanoma
HT29 colon = system: HT29 colon
CCRF-CEM leukemia = system: CCRF-CEM leukemia
SR leukemia = system: SR leukemia
HOP-62 NSCLC = system: HOP-62 NSCLC
BT-549 breast = system: BT-549 breast

Compound	GI50 (M14 melanoma)	TGI (M14 melanoma)	GI50 (LOX IMVI melanoma)	TGI (LOX IMVI melanoma)	GI50 (OVCAR-4 ovarian)	TGI (OVCAR-4 ovarian)	GI50 (UO-31 renal)	TGI (UO-31 renal)	GI50 (UACC-257 melanoma)	TGI (UACC-257 melanoma)	GI50 (HT29 colon)	TGI (HT29 colon)	GI50 (CCRF-CEM leukemia)	TGI (CCRF-CEM leukemia)	GI50 (SR leukemia)	TGI (SR leukemia)	GI50 (HOP-62 NSCLC)	TGI (HOP-62 NSCLC)	GI50 (BT-549 breast)	TGI (BT-549 breast)
COc1ccc(CCN(CC(=O)N(CC(N)=O)C2CCC[C@@H]2OCc2ccccc2)C(=O)CN(C(=O)CN(CCc2ccc(Cl)cc2)C(=O)CN(C(=O)CN(C)Cc2ccccc2F)[C@H](C)C2CCCCC2)[C@H](C)C2CCCCC2)cc1OC (stereo not given in full)	1.13 µM	4.05 µM	1.08 µM	2.77 µM	1.95 µM	> 50 µM	2.2 µM	> 50 µM	1.09 µM	2.68 µM	1.25 µM	5.75 µM	1.66 µM	15.1 µM	0.69 µM	2.23 µM	3.02 µM	> 50 µM	1.61 µM	15.6 µM
Oc1ccc2c3c1OC1c4[nH]ncc4C[C@H]4[C@@H](C2)N(CC2CC2)CC[C@]314 (stereo not given in full)		> 100 µM		> 100 µM		> 100 µM		> 100 µM		> 100 µM		> 100 µM		> 100 µM		> 100 µM		> 100 µM		> 100 µM
COc1cc(-c2nc3sc(C)cn3c2/C=C2\C(=O)Nc3ccccc32)c(Br)c(OC)c1OC	29.1 µM	> 100 µM	30.3 µM	> 100 µM	44.1 µM	> 100 µM	37.1 µM	> 100 µM	27.4 µM	81.5 µM	26.9 µM	55.5 µM	43.2 µM	> 100 µM	28.3 µM	> 100 µM	26.5 µM	88.7 µM	23.3 µM	60.1 µM
O=c1c2ccccc2c(/C=N\NC2=NCCN2)c2oc3ccccc3n12	34.4 µM	> 100 µM	13.2 µM	31.3 µM	23.7 µM	65.7 µM	18.8 µM	70.9 µM	> 100 µM	> 100 µM	20.7 µM	> 100 µM	32.2 µM	> 100 µM	6.12 µM	> 100 µM	28.6 µM	> 100 µM	31.3 µM	> 100 µM
CC(C)(C)c1cc(/C=N/NC(=O)c2ccccc2NC(=O)c2cccs2)c(O)c(C(C)(C)C)c1	0.459 µM	16 µM	0.542 µM	> 100 µM	0.193 µM	5.97 µM	0.269 µM	15.7 µM	6.18 µM	> 100 µM	0.798 µM	> 100 µM	0.336 µM	11.7 µM	0.786 µM	3.6 µM	0.779 µM	21.6 µM	4.65 µM	> 100 µM
CC(C)[C@@](O)(c1ccc2cc(OC(F)F)c(OC(F)F)cc2c1)c1cn[nH]n1	16 µM	33.4 µM	15.8 µM	29.2 µM	17.1 µM	86 µM	11.6 µM	26.4 µM	22.8 µM	48.5 µM	18.6 µM	41.6 µM	19.2 µM	55.3 µM	17.3 µM	44.7 µM	15.3 µM	30.7 µM	15.2 µM	29.5 µM
COC(=O)c1cc2oc(/C=C3/SC(=S)N(N)C3=O)cc2n1Cc1ccccc1	4.33 µM	31.2 µM	2.61 µM	16 µM	4.68 µM	42.8 µM	3.6 µM	10.6 µM	4.39 µM	21.5 µM	7.47 µM	19.4 µM	> 100 µM	> 100 µM	> 21.4 µM	> 100 µM	6.59 µM	25.6 µM	3.5 µM	26.7 µM
CC(C)(C)CC(C)(C)c1ccc(O)c(Cc2ccc(Cl)cc2Cl)c1	1.61 µM	3.08 µM	1.53 µM	2.86 µM	1.59 µM	2.93 µM	1.5 µM	2.83 µM	1.51 µM	2.86 µM	1.67 µM	3.03 µM	1.53 µM	3.19 µM	1.79 µM	4.22 µM	1.42 µM	2.72 µM	2.03 µM	3.52 µM
CC(=O)CC/C=C(\C)[C@H](O)[C@H](C)C(=O)O[C@H]1C[C@H](C)C=C2C=C[C@@]3(C)O[C@@H](O)CC(=O)[C@]3(C)[C@H]21	0.906 µM	2.38 µM	0.279 µM	1.69 µM	1.78 µM	6.05 µM	0.383 µM	2.9 µM	0.589 µM	4.48 µM	0.264 µM	1.37 µM	0.514 µM	4.83 µM	0.362 µM	12 µM	0.492 µM	3.63 µM	0.781 µM	3.76 µM
Cn1cc(C2=C(c3cn(-c4ccccc4)c4ccccc34)C(=O)NC2=O)c2ccccc21	13 µM	> 25 µM	19.2 µM	> 25 µM	10.4 µM	> 25 µM	5.35 µM	> 25 µM	> 25 µM	> 25 µM	9.56 µM	> 25 µM	15.2 µM	> 25 µM	9.37 µM	> 25 µM	> 25 µM	> 25 µM	16.2 µM	> 25 µM
